Among the data in patent US9598440B2, “Inhibitors of IRAK4 activity” (MERCK SHARP & DOHME CORP., priority 2012, dated 2017) are IC50 values, retold here.

Chain of IRAK4 (Q9NWZ3 whole entry): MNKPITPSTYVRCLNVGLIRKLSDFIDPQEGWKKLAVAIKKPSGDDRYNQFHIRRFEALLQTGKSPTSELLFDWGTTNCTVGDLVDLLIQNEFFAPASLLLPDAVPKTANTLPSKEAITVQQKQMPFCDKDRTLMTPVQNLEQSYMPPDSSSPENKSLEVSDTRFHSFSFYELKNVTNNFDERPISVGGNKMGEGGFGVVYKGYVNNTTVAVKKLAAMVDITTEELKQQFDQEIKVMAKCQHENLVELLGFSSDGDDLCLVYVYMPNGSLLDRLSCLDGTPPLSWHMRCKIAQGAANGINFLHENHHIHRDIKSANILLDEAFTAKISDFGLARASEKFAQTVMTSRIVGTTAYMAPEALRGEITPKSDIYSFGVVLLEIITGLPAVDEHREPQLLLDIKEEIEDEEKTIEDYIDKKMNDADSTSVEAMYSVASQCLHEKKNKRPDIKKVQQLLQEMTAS

In the test the target is IRAK4 (Homo sapiens (Human), UniProt Q9NWZ3). As to the kind of experiment: Determination of IRAK4 kinase activity (IMAP fluorescence polarization, phosphorylation of fluorescent peptide substrate). It is filed as biochemical. The note with it: 0.5 nM GST tagged IRAK4, 100 nM peptide substrate RP7030, 100 μM ATP, 30 minutes at 25° C. Put shortly:
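GST-tagged IRAK4 (0.5 nM) phosphorylated 100 nM fluorescent peptide substrate with 100 µM ATP in Tris-HCl pH 7.2, 1 mM MgCl2, 1 mM DTT, 0.01% Tween 20 for 30 min at 25 °C. Phosphorylation read by IMAP nanoparticle binding as fluorescence polarization increase.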
For orientation: Fluorescence polarisation rises when a labelled molecule tumbles more slowly, as on binding a larger partner.
The IC50 is the concentration that gives 50% inhibition. Read a low IC50 as higher potency. `COc1cccc(Nc2nc(C)c(-c3nc4ccccc4s3)c(N[C@@H]3C[C@H](CO)[C@@H](O)[C@H]3O)n2)c1` [Example 94, (1R,2S,3R,5R)-3-((5-(benzo[d]thiazol-2-yl)-2-((3-methoxyphenyl)amino)-6-methylpyrimidin-4-yl)amino)-5-(hydroxymethyl)cyclopentane-1,2-diol] yielded a half-inhibitory concentration (IC50) of 870 nM. For the molecule `Cc1nc(N)nc(N[C@@H]2C[C@H](CO)[C@@H](O)[C@H]2O)c1-c1nc(Br)cs1` [Example 95, (1R,2S,3R,5R)-3-((2-amino-5-(4-bromothiazol-2-yl)-6-methylpyrimidin-4-yl)amino)-5-(hydroxymethyl)cyclopentane-1,2-diol], inhibition was half-maximal at 4650 nM (IC50). Take `Cc1nc(Nc2ccccn2)nc(N[C@@H]2C[C@H](CO)[C@@H](O)[C@H]2O)c1-c1nc2ccccc2s1` [Example 97, (1R,2S,3R,5R)-3-((5-(benzo[d]thiazol-2-yl)-6-methyl-2-(pyridin-2-ylamino)pyrimidin-4-yl)amino)-5-(hydroxymethyl)cyclopentane-1,2-diol]: the IC50 worked out at 11300 nM. Next, `Cc1nc(N2CCC(C)CC2)nc(N[C@@H]2C[C@H](CO)[C@@H](O)[C@H]2O)c1-c1nc2ccccc2s1` [Example 98, (1R,2S,3R,5R)-3-((5-(benzo[d]thiazol-2-yl)-6-methyl-2-(4-methylpiperidin-1-yl)pyrimidin-4-yl)amino)-5-(hydroxymethyl)cyclopentane-1,2-diol]: 948 nM. For `Cc1nc(Nc2cccnc2)nc(N[C@@H]2C[C@H](CO)[C@@H](O)[C@H]2O)c1-c1nc2ccccc2s1` [Example 99, (1R,2S,3R,5R)-3-((5-(benzo[d]thiazol-2-yl)-6-methyl-2-(pyridin-3-ylamino)pyrimidin-4-yl)amino)-5-(hydroxymethyl)cyclopentane-1,2-diol], half-maximal inhibition (IC50) was put at 292 nM.

`Cc1cc(Nc2nc(C)c(-c3nc4ccccc4s3)c(N[C@@H]3C[C@H](CO)[C@@H](O)[C@H]3O)n2)ccn1` [Example 100, (1R,2S,3R,5R)-3-((5-(benzo[d]thiazol-2-yl)-6-methyl-2-((2-methylpyridin-4-yl)amino)pyrimidin-4-yl)amino)-5-(hydroxymethyl)cyclopentane-1,2-diol]: the IC50 stood at 138 nM. `Cc1nc(N)nc(N[C@@H]2C[C@H](CO)[C@@H](O)[C@H]2O)c1-c1nc2ccccc2o1` [Example 101, (1R,2S,3R,5R)-3-((2-amino-5-(benzo[d]oxazol-2-yl)-6-methylpyrimidin-4-yl)amino)-5-(hydroxymethyl)cyclopentane-1,2-diol] came in with an IC50 of 992 nM. As for `Cc1nc(Nc2cccc(C(N)=O)c2)nc(N[C@@H]2C[C@H](CO)[C@@H](O)[C@H]2O)c1-c1nc2ccccc2s1` [Example 102, 3-((5-(benzo[d]thiazol-2-yl)-4-(((1R,2S,3R,4R)-2,3-dihydroxy-4-(hydroxymethyl)cyclopentyl)amino)-6-methylpyrimidin-2-yl)amino)benzamide], the figure is 142 nM; as for `Cc1nc(Nc2ccc(O)cc2)nc(N[C@@H]2C[C@H](CO)[C@@H](O)[C@H]2O)c1-c1nc2ccccc2s1` [Example 103, (1R,2S,3R,5R)-3-((5-(benzo[d]thiazol-2-yl)-2-((4-hydroxyphenyl)amino)-6-methylpyrimidin-4-yl)amino)-5-(hydroxymethyl)cyclopentane-1,2-diol], 243 nM; as for `Cc1nc(Nc2cccc(O)c2)nc(N[C@@H]2C[C@H](CO)[C@@H](O)[C@H]2O)c1-c1nc2ccccc2s1` [Example 104, (1R,2S,3R,5R)-3-((5-(benzo[d]thiazol-2-yl)-2-((3-hydroxyphenyl)amino)-6-methylpyrimidin-4-yl)amino)-5-(hydroxymethyl)cyclopentane-1,2-diol], 219 nM. As for `COc1cc(Nc2nc(C)c(-c3nc4ccccc4s3)c(N[C@@H]3C[C@H](CO)[C@@H](O)[C@H]3O)n2)ccn1` [Example 105, (1R,2S,3R,5R)-3-((5-(benzo[d]thiazol-2-yl)-2-((2-methoxypyridin-4-yl)amino)-6-methylpyrimidin-4-yl)amino)-5-(hydroxymethyl)cyclopentane-1,2-diol], it took 93 nM to reach half-maximal inhibition (IC50). In turn, `Cc1nc(Nc2cccc(Cl)c2)nc(N[C@@H]2C[C@H](CO)[C@@H](O)[C@H]2O)c1-c1nc2ccccc2s1` [Example 106, (1R,2S,3R,5R)-3-((5-(benzo[d]thiazol-2-yl)-2-((3-chlorophenyl)amino)-6-methylpyrimidin-4-yl)amino)-5-(hydroxymethyl)cyclopentane-1,2-diol] displayed an IC50 of 519 nM. Against the preceding molecule, the IC50 is about 5.6-fold higher. As for `Cc1cc(Nc2nc(C)c(-c3nc4ccccc4s3)c(N[C@@H]3C[C@H](C(C)(C)O)[C@@H](O)[C@H]3O)n2)cc(C)n1` [Example 107, 5-(benzo[d]thiazol-2-yl)-6-(((1R,2S,3R,4S)-2,3-dihydroxy-4-(2-hydroxypropan-2-yl)cyclopentyl)amino)-2-((2,6-dimethylpyridin-4-yl)amino)-4-methylpyrimidine], the IC50 amounted to 8 nM. Next, `Cc1cc(Nc2ncc(-c3nc4ccccc4s3)c(N[C@H]3C[C@@H](CO)[C@H](O)[C@@H]3O)n2)cc(C)n1` [Example 108, 5-(benzo[d]thiazol-2-yl)-6-(((1S,2R,3 S,4S)-2,3-dihydroxy-4-(hydroxymethyl)cyclopentyl)amino)-2-((2,6-dimethylpyridin-4-yl)amino)pyrimidine]: 384 nM; `Cc1cc(Nc2ncc(-c3ccc4ccccc4n3)c(N[C@@H]3C[C@H](C(C)(C)O)[C@@H](O)[C@H]3O)n2)ccn1` [Example 124, 6-(((1R,2S,3R,4R)-2,3-dihydroxy-4-(2-hydroxypropan-2-yl)cyclopeltyl)amino)-2-((2-methylpyridin-4-yl)amino)-5-(quinolin-2-yl)pyrimidine]: 0.2 nM; `Cc1cc(Nc2ncc(-c3nc4ccccc4s3)c(N[C@@H]3C[C@H](C(C)(C)O)[C@@H](O)[C@H]3O)n2)ccn1` [Example 127, (1R,2S,3R,5S)-3-((5-(benzo[d]thiazol-2-yl)-2-((2-methylpyridine-4-yl)amino)pyrimidin-4-yl)amino)-5-(2-hydroxypropan-2-yl)cyclopentane-1,2-diol]: 16 nM. Regarding `CC(C)(O)[C@H]1C[C@@H](Nc2nc(NC3CCC3)ncc2-c2nc3ccccc3s2)[C@H](O)[C@@H]1O` [Example 128, (1R,2S,3R,5S)-3-((5-(benzo[d]thiazol-2-yl)-2-(cyclobutylamino)pyrimidin-4-yl)amino)-5-(2-hydroxypropan-2-yl)cyclopentane-1,2-diol], it took 50 nM to reach half-maximal inhibition (IC50). `CC(C)(O)[C@H]1C[C@@H](Nc2nc(Nc3cccc(C(N)=O)c3)ncc2-c2nc3ccccc3s2)[C@H](O)[C@@H]1O` [Example 129, 3-((5-(benzo[d]thiazol-2-yl)-4-(((1R,2S,3R,4S)-2,3-dihydroxy-4-(2-hydroxypropan-2-yl)cyclopentyl)amino)pyrimidin-2-yl)amino)benzamide] returned a half-inhibitory concentration (IC50) of 1.4 nM. Next, `CC(C)(O)[C@H]1C[C@@H](Nc2nc(N)ncc2-c2nc3ccccc3s2)[C@H](O)[C@@H]1O` [Example 130, (1R,2S,3R,5S)-3-((2-amino-5-(benzo[d]thiazol-2-yl)pyrimidin-4-yl)amino)-5-(2-hydroxypropan-2-yl)cyclopentane-1,2-diol]: 23 nM; `CC(C)(O)[C@H]1C[C@@H](Nc2nc(NC3CCN(S(C)(=O)=O)CC3)ncc2-c2nc3ccccc3s2)[C@H](O)[C@@H]1O` [Example 131, (1R,2S,3R,5S)-3-((5-(benzo[d]thiazol-2-yl)-2-((1-(methylsulfonyl)piperidin-4-yl)amino)pyrimidin-4-yl)amino)-5-(2-hydroxypropan-2-yl)cyclopentane-1,2-diol]: 382 nM.

`Cc1csc(-c2cnc(N)nc2N[C@@H]2C[C@H](C(C)(C)O)[C@@H](O)[C@H]2O)n1` [Example 132, (1R,2S,3R,5S)-3-((2-amino-5-(4-methylthiazol-2-yl)pyrimidin-4-yl)amino)-5-(2-hydroxypropan-2-yl)cyclopentane-1,2-diol]: the IC50 was 54 nM.

Molecule `Cc1cc(Nc2ncc(-c3nc(C)cs3)c(N[C@@H]3C[C@H](C(C)(C)O)[C@@H](O)[C@H]3O)n2)cc(C)n1` [Example 133, (1R,2S,3R,5S)-3-((2-((2,6-dimethylpyridin-4-yl)amino)-5-(4-methylthiazol-2-yl)pyrimidin-4-yl)amino)-5-(2-hydroxypropan-2-yl)cyclopentane-1,2-diol] showed an IC50 of 0.2 nM. As for `Cc1csc(-c2cnc(NC3CCC3)nc2N[C@@H]2C[C@H](C(C)(C)O)[C@@H](O)[C@H]2O)n1` [Example 134, (1R,2S,3R,5S)-3-((2-(cyclobutylamino)-5-(4-methylthiazol-2-yl)pyrimidin-4-yl)amino)-5-(2-hydroxypropan-2-yl)cyclopentane-1,2-diol], the IC50 was determined as 270 nM. Against the preceding molecule, the IC50 is about 1400-fold higher. As for `COc1cc(Nc2ncc(-c3nc(C)cs3)c(N[C@@H]3C[C@H](C(C)(C)O)[C@@H](O)[C@H]3O)n2)ccn1` [Example 135, (1S,2R,3 S,5R)-3-(2-hydroxypropan-2-yl)-5-((2-((2-methoxypyridin-4-yl)amino)-5-(4-methylthiazol-2-yl)pyrimidin-4-yl)amino)cyclopentane-1,2-diol], the figure is 1 nM; as for `COc1cc(Nc2ncc(-c3nc4ccccc4s3)c(N[C@@H]3C[C@H](CO)[C@@H](O)[C@H]3OC)n2)ccn1` [Example 139, (1R,2S,3R,5R)-3-((5-(benzo[d]thiazol-2-yl)-2-((2-methoxypyridin-4-yl)amino)pyrimidin-4-yl)amino)-5-(hydroxymethyl)-2-methoxycyclopentanol], 29 nM; as for `CO[C@@H]1[C@H](O)[C@@H](CO)C[C@H]1Nc1nc(Nc2cc(C)nc(C)c2)ncc1-c1nc2ccccc2s1` [Example 140, (1R,2S,3R,5R)-3-((5-(benzo[d]thiazol-2-yl)-2-((2,6-dimethylpyridin-4-yl)amino)pyrimidin-4-yl)amino)-5-(hydroxymethyl)-2-methoxycyclopentanol], 9 nM.
